Tests used:
[1] = test system: PGE2 production by cell lines; test: PGE2 production by cell lines; format: cell-based
[2] = chemical stability in aqueous solutions; format: physicochemical; details: over broad pH range
[3] = chemical stability when incubated with hepatocyte extracts; format: in vitro ADME
[4] = chemical stability when incubated with hepatocyte cell lines; format: in vitro ADME
[5] = plasma half-life after IP injection into mice; format: in vivo; details: mouse, injected IP into mice
mice = test: toxicity after IP injection into mice
recombinant 15-PGDH = biological target: T1, recombinant 15-PGDH (Homo sapiens, UniProt P15428); test: inhibition of recombinant 15-PGDH; format: biochemical
T1 sequence (P15428 1-266): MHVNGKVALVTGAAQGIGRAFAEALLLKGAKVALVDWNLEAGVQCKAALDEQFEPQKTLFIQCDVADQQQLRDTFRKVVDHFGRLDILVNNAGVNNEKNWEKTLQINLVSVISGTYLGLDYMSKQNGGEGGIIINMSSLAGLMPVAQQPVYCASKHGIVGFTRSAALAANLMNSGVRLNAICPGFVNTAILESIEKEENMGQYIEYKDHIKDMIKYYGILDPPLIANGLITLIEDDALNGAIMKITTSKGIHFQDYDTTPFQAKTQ

[6] = chemical stability when incubated with mouse liver extracts; format: in vitro ADME
[7] = chemical stability when incubated with rat liver extracts; format: in vitro ADME
[8] = chemical stability when incubated with human liver extracts; format: in vitro ADME
[9] = test system: mouse model of idiopathic pulmonary fibrosis; test: bleomycin mouse model of idiopathic pulmonary fibrosis; format: in vivo, C57/BL6J mice; details: vs vehicle
Method: 8 week old female C57/BL6J mice were purchased from Jackson Labs (stock #000664). All mouse studies were approved by the institutional animal care and use committee at Case Western Reserve University.
To induce disease onset, mice were anesthetized with ketamine/xylazine and the trachea exposed by cervical […]. Bleomycin sulfate (Enzo-BML-AP302-0010) was dissolved in H2O and administered intratracheally as a single dose of 2 mg/kg in 50 μl solution per animal.
Mortality was observed daily over the duration of the study. Body weights were measured prior to instillation and twice weekly post-bleomycin instillation.
Hydroxyproline was used to measure collagen content in mouse lungs (Sigma-MAK008-1KT). Briefly, mice were sacrificed and the right lung dissected for collagen quantitation. Experiments were performed according to the manufacturer's protocol. […] The hydrolyzed samples were incubated with 4-(Dimethylamino) benzaldehyde (DMAB) for 90 min at 60° C., and the absorbance of oxidized hydroxyproline was measured at 560 nm.

[10] = test system: mouse model of intestinal fibrosis; test: DSS chronic colitis mouse model of intestinal fibrosis; format: in vivo, FVB/N mice; details: 5 mg/kg IP twice a day for 28 days from day 41, colons day 69, vs vehicle
Method: To establish a model of intestinal fibrosis due to chronic colitis, 8-week male FVB/N mice were subjected to three cycles of dextran sodium sulfate (DSS; 2% w/v) in sterile drinking water. Each cycle consisted of 7 days of DSS followed by 10 days of recovery without DSS. […] On day 69, colons were harvested from mice, longitudinally open, and embedded in agar for orientation, and fixed in formalin overnight. Slides were prepared from paraffin-embedded formalin-fixed samples according to standard procedures. The degree of fibrosis in the mouse colon in the two groups were compared by Masson's Trichrome staining. The intensity of positive trichrome staining was quantified using ImageJ software in the following manner. 10 evenly spaced images were captured at 20× from each third of the colon from each mouse. (FIGS. 7(A-D)) Significant lymphovascular compartments or extracolonic connective tissue attachments seen on slides were excluded during the image capture. RGB channels were split from the images, and the blue channel from each image was divided by the red channel. After generating an intensity histogram of all pixels in the resultant image, the area under the curve (AUC) was calculated for intensities above 1.3 (blue/red) cutoff. The sum of AUC (total trichrome intensity) was normalized by the colon length.

[11] = 5.0 mg/kg IP 2× daily for 35 days after bleomycin

CCCC[S+]([O-])c1sc2nc(-c3cccs3)cc(-c3ccccc3)c2c1N (stereo not drawn) [formula (IX)]
PGE2 production by cell lines [1]: increase PGE2 production
chemical stability in aqueous solutions [2]: chemically stable
chemical stability with hepatocyte extracts [3]: chemically stable
chemical stability with hepatocyte cell lines [4]: chemically stable
half-life [5]: 4.22 h
toxicity (mice; injected IP into mice at 0.3 μmole/per mouse twice daily for 21 days): no toxicity
immediate toxicity over 24 hours (mice; injected IP into mice at 0.6 μmole/per mouse): no immediate toxicity
immediate toxicity over 24 hours (mice; injected IP into mice at 1.2 μmole/per mouse): no immediate toxicity

CCCC[S+]([O-])c1sc2nc(-c3nccs3)cc(-c3cnc(C)n3C)c2c1N (stereo not drawn) [formula (X)]
concentration at which recombinant 15-PGDH is inhibited (recombinant 15-PGDH): 3 nM
concentration at which PGE2 production by cell lines is increased [1]: 20 nM
chemical stability with liver extracts [6]: chemically stable
chemical stability with liver extracts [7]: chemically stable
chemical stability with liver extracts [8]: chemically stable
half-life [5]: 0.55 h

CCCC[S+]([O-])c1sc2nc(-c3cccs3)cc(-c3ccccc3)c2c1N (stereo not drawn) [SW033291, 2-(butylsulfinyl)-4-phenyl-6-(thiophen-2-yl)thieno[2,3-b]pyridin-3-amine]
survival [9, 11]: improved survival
weight change [9, 11]: enhanced maintenance of weight
collagen deposition (tissue hydroxyproline content) ([9]; lung, 5.0 mg/kg IP 2× daily after bleomycin): reduced collagen deposition

CCCC[S+]([O-])c1sc2nc(-c3cccs3)cc(-c3ccccc3)c2c1N (single isomer, unassigned; (+)) [(+)SW033291]
colonic fibrosis (Masson's Trichrome staining intensity normalized by colon length) [10]: substantially reduced
